Molecules are shown by their SMILES. Some results are limits rather than exact numbers.

26 molecules from patent US9955689B2, “Method for promoting plant growth” (SUMITOMO CHEMICAL COMPANY, LIMITED, priority 2012, dated 2018) can be followed below.

This test relates to Nicotiana benthamiana. The test can be described thus: Test Example 5: growth promotion under low-temperature stress by hydroponics of Nicotiana benthamiana (1 ppm). The test is classed as in vivo. The settings on record: compound at 1 ppm, 7 days at 1.5±1.0° C. low-temperature stress, then 3 days at 22° C., 5 or greater = growth promotion effect, read-out: value of a relative leaf area (Equation (1), area of green leaf). As to the method: Test Example 5. Test for Evaluating Growth Promotion Under Low-Temperature Stress by Hydroponics of Nicotiana benthamiana
(Cultivation and Compound Treatment)
A DMSO solution, which contained one of the compounds 9, 10, 15, 16, 27 to 29, 31 to 37, 40, 44, 47, 48, 52, 55, 56, 58, 61, 63, 81, 87, 89, 92, 95, 98, 100, 102, 105, 108, 109, 111, 113, and 115 of the present invention at a concentration of 1,000 ppm, was prepared. The DMSO solution of the compound of the present invention was added at a volume ratio of 1/1,000 to the Murashige-Scoog medium of a ½-fold concentration (a medium containing 2.3 g of mixed salts (manufactured by Wako Pure Chemical Industries, Ltd.), 200 mg of Myo-inositol (manufactured by Sigme-Aldrich Co. LLC.), 2 mg of niconitic acid (manufactured by Wako Pure Chemical. Industries, Ltd.), 2 mg of pyridoxine hydrochloride (manufactured by Wako Pure Chemical Industries, Ltd.), 20 mg of thiamine hydrochloride (manufactured by Wako Pure Chemical Industries, Ltd.), 20 g of sucrose (manufactured by Wako Pure Chemical Industries, Ltd.), and 1 g of MES (manufactured by DOJINDO LABORATORIES) respectively per 1 L of water and having pH adjusted to 5.8), thereby preparing a medium containing the compound of the present invention at a concentration of 1 ppm.
Seeds of Nicotiana benthamiana were seeded in the 5 μL of the medium and cultured overnight at 22° C. Thereafter, 45 μL of the medium containing the compound of the present invention at a concentration of 1 ppm was added thereto, and the seeds are cultured for 7 days at 22° C. under the conditions of an illuminance of 4,000 lux, and a day length of 16 hours, and the seedlings raised from the Nicotiana benthamiana were treated with the compound. Moreover, instead of the above medium a test plot, which was obtained by performing the same treatment by using a medium prepared by adding DMSO to the Murashige⋅Scoog medium of ½-fold concentration at a volume ratio of 1/1,000, was used as a control plot not treated with the compound.
(Low-Temperature Stress Treatment)
The seedlings of the Nicotiana benthamiana treated with the compound were subjected to low-temperature treatment by being cultured for 7 days at 1.5±1.0° C., under the conditions of an illuminance of 2,000 lux, and a day length of 16 hours.
The seedlings of the Nicotiana benthamiana having undergone the low-temperature stress treatment were cultured for 3 days at 22° C. under the conditions of an illuminance of 4,000 lux, and a day length of 16 hours. Thereafter, the area of green leaf was quantified by Scanalyzer HTS (manufactured by LemnaTec GmbH). Moreover, the value of the control plot not treated with the compound that had not yet been subjected to the low-temperature stress treatment was measured in the same manner. A value of a relative leaf area was calculated based on the following equation (1), and if the relative value of leaf area was 5 or greater, the compound was evaluated to have a growth promotion effect. As a result of the evaluation, it was confirmed that when the plant was treated with one of the compounds 9, 10, 15, 16, 27 to 29, 31 to 37, 40, 44, 47, 48, 52, 55, 56, 58, 61, 63, 81, 87, 89, 92, 95, 98, 100, 102, 105, 108, 109, 111, 113, and 115 of the present invention at 1 ppm, the value of a relative leaf area was 5 or greater, compared to the area of green leaf of the control plot not treated with compound. Accordingly, it was confirmed that the treatment using the compound of the present invention improve a growth promotion effect. Relative leaf area=100*(a green area of a plot treated with the compound of the present invention minus(−) a green area of a plot not treated with the compound of the present invention)/(a green area of a control plot not treated with the compound of the present invention that had not yet been subjected to low-temperature stress treatment minus(−) a green area of a control plot not treated with the compound of the present invention) Equation (1): […]

Take `O=C(O)c1cc2c(Br)cccc2s1` [Present compound 10, 4-bromobenzo[b]thiophene-2-carboxylic acid]: the relative leaf area at 1 ppm is no less than 5%.

For `O=C(O)c1cc2cc(I)ccc2s1` [Present compound 15, 5-iodobenzo[b]thiophene-2-carboxylic acid], the relative leaf area at 1 ppm is no less than 5%.

Take `N#Cc1ccc2sc(C(=O)O)cc2c1` [Present compound 16, 5-cyanobenzo[b]thiophene-2-carboxylic acid]: the relative leaf area at 1 ppm is no less than 5%.

With `Cc1cccc(-c2cccc3cc(C(=O)O)sc23)c1` [Present compound 40, 7-(3-methylphenyl)benzo[b]thiophene-2-carboxylic acid], the relative leaf area at 1 ppm is no less than 5%.

For `O=C(O)c1cc2cc(-c3ccccn3)ccc2s1` [Present compound 44, 5-(2-pyridyl)benzo[b]thiophene-2-carboxylic acid], the relative leaf area at 1 ppm is no less than 5%.

On to `O=C(O)c1cc2ccc(-c3ccc(C(F)(F)F)nc3)cc2s1` [Present compound 47, 6-(6-trifluoromethyl-3-pyridyl) benzo[b]thiophene-2-caboxylic acid], for which the relative leaf area at 1 ppm is no less than 5%.

For the molecule `O=C(O)c1cc2cc(-c3ncccn3)ccc2s1` [Present compound 48, 5-(2-pyrimidinyl)benzo[b]thiophene-2-carboxylic acid], the relative leaf area at 1 ppm is no less than 5%.

Regarding `O=C(O)c1cc2c(C(=O)O)cccc2s1` [Present compound 52, benzo[b]thiophene-2,4-dicarboxylic acid], the relative leaf area at 1 ppm was no less than 5%.

Take `CC(=O)c1ccc2sc(C(=O)O)cc2c1` [Present compound 56, 5-acetylbenzo[b]thiophene-2-carboxylic acid]: the relative leaf area at 1 ppm is no less than 5%.

For the molecule `O=C(O)c1cc2cc(C(=O)C(F)(F)F)ccc2s1` [Present compound 58, 5-(trifluoroacetyl)benzo[b]thiophene-2-carboxylic acid], the relative leaf area at 1 ppm was no less than 5%.

As for `Nc1ccc2sc(C(=O)O)cc2c1` [Present compound 61, 5-aminobenzo[b]thiophene-2-carboxylic acid], the relative leaf area at 1 ppm was no less than 5%.

Consider `Nc1c(C(=O)O)sc2ccccc12` [Present compound 63, 3-amino-benzo[b]thiophene-2-carboxylic acid], for which the relative leaf area at 1 ppm is no less than 5%.

As for `COc1cccc2sc(C(=O)O)cc12` [Present compound 81, 4-methoxybenzo[b]thiophene-2-carboxylic acid], the relative leaf area at 1 ppm was no less than 5%.

For the molecule `CC(C)Oc1c(C(=O)O)sc2ccccc12` [Present compound 87, 3-isopropoxybenzo[b]thiophene-2-carboxylic acid], the relative leaf area at 1 ppm was no less than 5%.

On to `O=C(O)c1cc2cc(OC(F)(F)F)ccc2s1` [Present compound 89, 5-trifluoromethoxybenzo[b]thiophene-2-carboxylic acid], for which the relative leaf area at 1 ppm is no less than 5%.

`COc1cccc(COc2ccc3cc(C(=O)O)sc3c2)c1` [Present compound 92, 6-(3-methoxybenzyloxy)benzo[b]thiophene-2-carboxylic acid]: the relative leaf area at 1 ppm was no less than 5%.

`O=C(O)c1cc2cccc(Oc3ccc(C(F)(F)F)cc3)c2s1` [Present compound 95, 7-(4-trifluoromethylphenoxy)benzo[b]thiophene-2-carboxylic acid]: the relative leaf area at 1 ppm is no less than 5%.

With `O=C(O)c1cc2cc(SC(F)(F)F)ccc2s1` [Present compound 98, 5-(trifluoromethylthio)benzo[b]thiophene-2-carboxylic acid], the relative leaf area at 1 ppm was no less than 5%.

Turning to `O=C(O)c1cc2cc(S(=O)(=O)C(F)(F)F)ccc2s1` [Present compound 100, 5-(trifluoromethylsulfonyl)benzo[b]thiophene-2-carboxylic acid], the relative leaf area at 1 ppm was no less than 5%.

Take `O=C(O)c1cc2c(Cl)c(Cl)ccc2s1` [Present compound 102, 4,5-dichlorobenzo[b]thiophene-2-carboxylic acid]: the relative leaf area at 1 ppm is no less than 5%.

`O=C(O)c1sc2ccc(C(F)(F)F)cc2c1Cl` [Present compound 105, 3-chloro-5-trifluoromethylbenzo[b]thiophene-2-carboxylic acid]: the relative leaf area at 1 ppm is no less than 5%.

With `Nc1c(C(=O)O)sc2ccc(C(F)(F)F)cc12` [Present compound 108, 3-amino-5-trifluoromethylbenzo[b]thiophene-2-carboxylic acid], the relative leaf area at 1 ppm was no less than 5%.

For the molecule `CNc1c(C(=O)O)sc2ccc(C(F)(F)F)cc12` [Present compound 109, 3-(N-methylamino)-5-trifluoromethylbenzo[b]thiophene-2-carboxylic acid], the relative leaf area at 1 ppm was no less than 5%.

For the molecule `O=C(O)c1sc2ccc(C(F)(F)F)cc2c1O` [Present compound 111, 3-hydroxy-5-trifluoromethylbenzo[b]thiophene-2-carboxylic acid], the relative leaf area at 1 ppm was no less than 5%.

With `CCOc1c(C(=O)O)sc2ccc(C(F)(F)F)cc12` [Present compound 113, 3-ethoxy-5-trifluoromethylbenzo[b]thiophene-2-carboxylic acid], the relative leaf area at 1 ppm was no less than 5%.

With `O=C(O)c1sc2ccc(C(F)(F)F)cc2c1OCc1ccccc1` [Present compound 115, 3-benzyloxy-5-trifluoromethylbenzo[b]thiophene-2-carboxylic acid], the relative leaf area at 1 ppm is no less than 5%.
